Assay results as given in patent US10206937B2, “Boronic acid derivatives and therapeutic uses thereof” (Qpex Biopharma, Inc., priority 2014, dated 2019).

Columns and labels:
VIM-1 = target: T1, VIM-1 (Pseudomonas aeruginosa, UniProt A0A0F7KYQ8); assay: biochemical; conditions: cleavage of nitrocefin (200 uM) by VIM-1 supernatant
T1 construct: made in house; host or cells: ECM6711 strain carrying pUCP24-VIM-1 plasmid; culture supernatant used unpurified

NDM-1 [1] = target: T2, NDM-1 (Klebsiella pneumoniae, UniProt C7C422); assay: Inhibition of purified class B carbapenemase NDM-1 (Ki, imipenem substrate); format: biochemical; conditions: NDM-1, substrate imipenem; read-out: Ki NDM-1, Imipenem
NDM-1 [2] = target: T2, NDM-1; assay: biochemical; conditions: cleavage of imipenem (100 uM) by NDM-1; read-out: Ki, Imipenem
[3] = target: T3, purified class A, C and D enzymes (UniProt Q9F663); format: biochemical; conditions: read-out: Ki (KPC-2, NCF); purified KPC-2; nitrocefin reporter substrate
T3 construct: rows headed: Ki (KPC-2, NCF); other: purified KPC-2; nitrocefin reporter substrate

[4] = target: purified class A, C and D enzymes (Escherichia coli, UniProt Q9L5C7); format: biochemical; conditions: purified CTX-M-14; nitrocefin reporter substrate
[5] = target: purified class A, C and D enzymes (Enterobacter cloacae, UniProt P05364); format: biochemical; conditions: purified P99/AmpC of ECL; nitrocefin reporter substrate
[6] = target: T4, purified class A, C and D enzymes (UniProt Q6XEC0); format: biochemical; conditions: read-out: Ki (OXA-48, NCF); purified OXA-48; nitrocefin reporter substrate
T4 construct: rows headed: Ki (OXA-48, NCF); other: purified OXA-48; nitrocefin reporter substrate

[7] = target: T5, purified class A, C and D enzymes (UniProt P0AD64, L31Q/G234S/E235K, species not given); format: biochemical; conditions: read-out: Ki (SHV-12, NCF); purified SHV-12; nitrocefin reporter substrate
T5 construct: Ki (SHV-12, NCF); other: purified SHV-12; nitrocefin reporter substrate
T5 sequence (P0AD64 1-286 L31Q/G234S/E235K): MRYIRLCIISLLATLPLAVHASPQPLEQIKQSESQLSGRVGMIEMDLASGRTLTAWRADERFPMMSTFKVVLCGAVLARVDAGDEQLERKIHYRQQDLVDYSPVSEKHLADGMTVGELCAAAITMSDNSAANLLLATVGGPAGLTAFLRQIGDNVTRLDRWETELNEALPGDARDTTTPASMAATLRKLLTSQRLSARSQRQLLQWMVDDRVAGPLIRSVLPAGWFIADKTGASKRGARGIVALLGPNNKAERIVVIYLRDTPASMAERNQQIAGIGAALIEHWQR

Sequence of purified class A, C and D enzymes (Enterobacter cloacae, UniProt P05364) (P05364 21-381): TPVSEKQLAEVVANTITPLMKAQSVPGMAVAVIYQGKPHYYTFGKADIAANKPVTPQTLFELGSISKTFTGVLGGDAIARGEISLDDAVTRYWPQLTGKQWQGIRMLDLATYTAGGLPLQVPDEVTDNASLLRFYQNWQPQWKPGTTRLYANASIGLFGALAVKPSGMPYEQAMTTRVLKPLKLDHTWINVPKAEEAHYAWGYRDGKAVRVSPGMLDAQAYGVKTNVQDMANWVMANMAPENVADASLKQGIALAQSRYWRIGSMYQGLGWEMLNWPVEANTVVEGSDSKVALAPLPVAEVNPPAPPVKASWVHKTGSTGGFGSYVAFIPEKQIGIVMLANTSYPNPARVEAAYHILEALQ
T2 sequence (C7C422 29-270, looked up, species assumed): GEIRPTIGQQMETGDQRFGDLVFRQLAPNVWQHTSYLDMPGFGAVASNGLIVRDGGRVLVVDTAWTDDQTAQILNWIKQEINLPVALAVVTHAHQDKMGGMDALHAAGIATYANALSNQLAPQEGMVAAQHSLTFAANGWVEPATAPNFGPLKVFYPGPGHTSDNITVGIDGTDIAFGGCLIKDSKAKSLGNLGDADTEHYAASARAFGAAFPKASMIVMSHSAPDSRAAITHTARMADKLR
Sequence of purified class A, C and D enzymes (Escherichia coli, UniProt Q9L5C7) (Q9L5C7 entry or part of it): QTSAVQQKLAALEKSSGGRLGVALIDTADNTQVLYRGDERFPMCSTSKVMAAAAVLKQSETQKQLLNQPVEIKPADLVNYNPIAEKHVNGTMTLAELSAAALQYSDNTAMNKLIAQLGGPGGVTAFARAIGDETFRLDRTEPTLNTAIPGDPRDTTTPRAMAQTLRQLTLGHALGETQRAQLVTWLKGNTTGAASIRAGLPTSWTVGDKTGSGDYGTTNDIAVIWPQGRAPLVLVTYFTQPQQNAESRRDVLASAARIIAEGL

SMILES	IC50 (VIM-1)	Ki (NDM-1 [1])	Ki (NDM-1 [2])	Ki [3]	Ki (CTX-M-14, NCF) [4]	Ki (P99/AmpC of ECL, NCF) [5]	Ki [6]	Ki [7]
O=C(O)c1c(F)ccc2c1OB(O)[C@@H](SC1CNC1)C2 [Compound 46, (R)-3-(azetidin-3-ylthio)-7-fluoro-2-hydroxy-3,4-dihydro-2H-benzo[e][1,2]oxaborinine-8-carboxylic acid]	≥ 1 µM	> 0.1 µM	> 0.1 µM	0.1 to 1 µM	X (Less than 0.1 μM)	Z (Greater than 1 μM)	< 0.1 µM	< 0.1 µM
COc1ccc2c(c1C(=O)O)OB(O)[C@@H](Sc1nccs1)C2 [Compound 47, (R)-2-hydroxy-7-methoxy-3-(thiazol-2-ylthio)-3,4-dihydro-2H-benzo[e][1,2]oxaborinine-8-carboxylic acid]	< 1 µM	0.01 to 0.1 µM	> 0.1 µM	0.1 to 1 µM	X (Less than 0.1 μM)	Y (0.1 μM to 1 μM)	< 0.1 µM	< 0.1 µM
O=C(O)c1c(F)ccc2c1OB(O)[C@@H](Sc1cnns1)C2 [Compound 48, (3R)-7-fluoro-2-hydroxy-3-(thiadiazol-5-ylsulfanyl)-3,4-dihydro-1,2-benzoxaborinine-8-carboxylic acid]	≥ 1 µM	> 0.1 µM	> 0.1 µM	0.1 to 1 µM	X (Less than 0.1 μM)	Z (Greater than 1 μM)	< 0.1 µM	< 0.1 µM
NC(=O)CS[C@H]1Cc2ccc(F)c(C(=O)O)c2OB1O [Compound 49, (3R)-3-(2-amino-2-oxo-ethyl)sulfanyl-7-fluoro-2-hydroxy-3,4-dihydro-1,2-benzoxaborinine-8-carboxylic acid]	≥ 1 µM	> 0.1 µM	> 0.1 µM	< 0.1 µM	X (Less than 0.1 μM)	Y (0.1 μM to 1 μM)	< 0.1 µM	< 0.1 µM
Nc1nnc(CCS[C@H]2Cc3ccc(F)c(C(=O)O)c3OB2O)s1 [Compound 50, (3R)-3-[2-(5-amino-1,3,4-thiadiazol-2-yl)ethylsulfanyl]-7-fluoro-2-hydroxy-3,4-dihydro-1,2-benzoxaborinine-8-carboxylic acid]	< 1 µM	> 0.1 µM	> 0.1 µM	< 0.1 µM	X (Less than 0.1 μM)	X (Less than 0.1 μM)	< 0.1 µM	< 0.1 µM
N#CCS[C@H]1Cc2ccc(F)c(C(=O)O)c2OB1O [Compound 51, (3R)-3-(cyanomethylsulfanyl)-7-fluoro-2-hydroxy-3,4-dihydro-1,2-benzoxaborinine-8-carboxylic acid]	≥ 1 µM	> 0.1 µM	> 0.1 µM	< 0.1 µM	X (Less than 0.1 μM)	Z (Greater than 1 μM)	< 0.1 µM	< 0.1 µM
Nc1ncc(S[C@H]2Cc3ccc(F)c(C(=O)O)c3OB2O)s1 [Compound 52, (3R)-3-(2-aminothiazol-5-yl)sulfanyl-7-fluoro-2-hydroxy-3,4-dihydro-1,2-benzoxaborinine-8-carboxylic acid]	< 1 µM	> 0.1 µM	> 0.1 µM	< 0.1 µM	X (Less than 0.1 μM)	Y (0.1 μM to 1 μM)	< 0.1 µM	< 0.1 µM
NC(=O)c1cnc(S[C@H]2Cc3ccc(F)c(C(=O)O)c3OB2O)s1 [Compound 53, (3R)-3-(5-carbamoylthiazol-2-yl)sulfanyl-7-fluoro-2-hydroxy-3,4-dihydro-1,2-benzoxaborinine-8-carboxylic acid]	< 1 µM	> 0.1 µM	> 0.1 µM	< 0.1 µM	X (Less than 0.1 μM)	Y (0.1 μM to 1 μM)	< 0.1 µM	< 0.1 µM
NC(=O)c1csc(S[C@H]2Cc3ccc(F)c(C(=O)O)c3OB2O)n1 [Compound 54, (3R)-3-(4-carbamoylthiazol-2-yl)sulfanyl-7-fluoro-2-hydroxy-3,4-dihydro-1,2-benzoxaborinine-8-carboxylic acid]	< 1 µM	> 0.1 µM	> 0.1 µM	< 0.1 µM	X (Less than 0.1 μM)	Y (0.1 μM to 1 μM)	< 0.1 µM	< 0.1 µM
O=C(O)c1c(F)ccc2c1OB(O)[C@@H](Sc1nnc(C(F)(F)F)s1)C2 [Compound 55, (3R)-7-fluoro-2-hydroxy-3-[[5-(trifluoromethyl)-1,3,4-thiadiazol-2-yl]sulfanyl]-3,4-dihydro-1,2-benzoxaborinine-8-carboxylic acid]	≥ 1 µM	> 0.1 µM	> 0.1 µM	0.1 to 1 µM	Y (0.1 μM to 1 μM)	Y (0.1 μM to 1 μM)	< 0.1 µM	0.1 to 1 µM
Cn1ncc(C(N)=O)c1S[C@H]1Cc2ccc(F)c(C(=O)O)c2OB1O [Compound 56, (3R)-3-(4-carbamoyl-2-methyl-pyrazol-3-yl)sulfanyl-7-fluoro-2-hydroxy-3,4-dihydro-1,2-benzoxaborinine-8-carboxylic acid]	≥ 1 µM	> 0.1 µM	> 0.1 µM	0.1 to 1 µM	Y (0.1 μM to 1 μM)	Z (Greater than 1 μM)	< 0.1 µM	0.1 to 1 µM
NCc1cnc(S[C@H]2Cc3ccc(F)c(C(=O)O)c3OB2O)s1 [Compound 57, (3R)-3-[5-(aminomethyl)thiazol-2-yl]sulfanyl-7-fluoro-2-hydroxy-3,4-dihydro-1,2-benzoxaborinine-8-carboxylic acid]	< 1 µM	0.01 to 0.1 µM	0.01 to 0.1 µM	0.1 to 1 µM	X (Less than 0.1 μM)	Z (Greater than 1 μM)	< 0.1 µM	< 0.1 µM
O=CNc1cnc(S[C@H]2Cc3ccc(F)c(C(=O)O)c3OB2O)s1 [Compound 58, (3R)-7-fluoro-3-(5-formamidothiazol-2-yl)sulfanyl-2-hydroxy-3,4-dihydro-1,2-benzoxaborinine-8-carboxylic acid]	< 1 µM	> 0.1 µM	> 0.1 µM	0.1 to 1 µM	X (Less than 0.1 μM)	Y (0.1 μM to 1 μM)	< 0.1 µM	< 0.1 µM
O=C(O)c1c(F)ccc2c1OB(O)[C@@H](Sc1nncs1)C2 [Compound 59, (3R)-7-fluoro-2-hydroxy-3-(1,3,4-thiadiazol-2-ylsulfanyl)-3,4-dihydro-1,2-benzoxaborinine-8-carboxylic acid]	< 1 µM	> 0.1 µM	> 0.1 µM	< 0.1 µM	X (Less than 0.1 μM)	Y (0.1 μM to 1 μM)	< 0.1 µM	< 0.1 µM
COc1ccc2c(c1C(=O)O)OB(O)[C@@H](Sc1cnns1)C2 [Compound 60, (3R)-2-hydroxy-7-methoxy-3-(thiadiazol-5-ylsulfanyl)-3,4-dihydro-1,2-benzoxaborinine-8-carboxylic acid]	< 1 µM	> 0.1 µM	> 0.1 µM	< 0.1 µM	X (Less than 0.1 μM)	Z (Greater than 1 μM)	< 0.1 µM	< 0.1 µM
COc1ccc2c(c1C(=O)O)OB(O)[C@@H](Sc1nc(C(N)=O)cs1)C2 [Compound 61, (3R)-3-(4-carbamoylthiazol-2-yl)sulfanyl-2-hydroxy-7-methoxy-3,4-dihydro-1,2-benzoxaborinine-8-carboxylic acid]	< 1 µM	> 0.1 µM	> 0.1 µM	< 0.1 µM	X (Less than 0.1 μM)	Y (0.1 μM to 1 μM)	< 0.1 µM	< 0.1 µM
COc1ccc2c(c1C(=O)O)OB(O)[C@@H](Sc1nnc(NC(C)=O)s1)C2 [Compound 63, (3R)-3-[(5-acetamido-1,3,4-thiadiazol-2-yl)sulfanyl]-2-hydroxy-7-methoxy-3,4-dihydro-1,2-benzoxaborinine-8-carboxylic acid]	< 1 µM	> 0.1 µM	> 0.1 µM	0.1 to 1 µM	X (Less than 0.1 μM)	X (Less than 0.1 μM)	< 0.1 µM	< 0.1 µM
